A value given as a limit tells only on which side of the number the result lay.

The assay concerns the target T1, Prolyl endopeptidase (Homo sapiens, UniProt P48147).
T1 sequence (P48147 whole entry): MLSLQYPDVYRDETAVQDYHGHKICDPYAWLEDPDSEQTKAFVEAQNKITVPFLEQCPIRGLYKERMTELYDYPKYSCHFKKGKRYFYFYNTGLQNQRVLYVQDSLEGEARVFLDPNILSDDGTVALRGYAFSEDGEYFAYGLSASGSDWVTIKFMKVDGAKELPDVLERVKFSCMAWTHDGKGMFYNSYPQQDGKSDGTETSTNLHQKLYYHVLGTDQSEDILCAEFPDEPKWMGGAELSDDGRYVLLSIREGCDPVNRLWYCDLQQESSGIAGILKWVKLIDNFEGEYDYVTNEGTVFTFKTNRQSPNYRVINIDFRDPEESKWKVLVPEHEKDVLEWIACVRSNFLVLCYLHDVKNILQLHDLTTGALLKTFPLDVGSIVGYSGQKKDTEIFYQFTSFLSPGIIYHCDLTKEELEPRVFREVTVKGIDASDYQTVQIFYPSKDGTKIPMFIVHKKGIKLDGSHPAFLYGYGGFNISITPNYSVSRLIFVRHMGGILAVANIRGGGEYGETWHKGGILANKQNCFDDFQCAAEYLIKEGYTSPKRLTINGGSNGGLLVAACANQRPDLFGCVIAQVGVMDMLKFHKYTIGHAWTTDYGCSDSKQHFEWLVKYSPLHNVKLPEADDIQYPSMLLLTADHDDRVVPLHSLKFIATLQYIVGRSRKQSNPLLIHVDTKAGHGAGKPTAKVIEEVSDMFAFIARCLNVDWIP
Description: Inhibition of human brain prolyl oligopeptidase expressed in Escherichia coli.

In the case of `O=c1c(O)c(-c2ccccc2)oc2cc(O)ccc12` [3,7-DIHYDROXYFLAVONE], the IC50 was above 200 µM.
`O=c1c(O)c(-c2ccc(O)cc2)oc2cc(O)cc(O)c12` [KAEMPFEROL] displayed an IC50 above 200 µM.
The figure for `O=c1c(O)c(-c2ccc(O)c(O)c2)oc2cc(O)cc(O)c12` [QUERCETIN] is 13 µM; for `C[C@@H]1O[C@@H](OC[C@H]2O[C@@H](Oc3c(-c4ccc(O)c(O)c4)oc4cc(O)cc(O)c4c3=O)[C@H](O)[C@@H](O)[C@@H]2O)[C@H](O)[C@H](O)[C@H]1O` [RUTIN] it is above 200 µM.

As a reminder, the IC50 is the point on the concentration scale where inhibition reaches its midpoint.

(Values after ChEMBL document CHEMBL1155939, “Baicalin, a prodrug able to reach the CNS, is a prolyl oligopeptidase inhibitor” (Bioorg Med Chem, 2008).)
